# Reference: ChEMBL document CHEMBL2151022, “Combatting Drug-Resistant Bacteria with Gyrase and Topoisomerase IV Inhibitors: Patent Highlight” (ACS Med Chem Lett, 2012)
# Target: DNA gyrase subunit B (Staphylococcus aureus, UniProt P0A0K8)
# Experiment: Inhibition of Staphylococcus aureus DNA gyrase Gyr B subunit by ATPase assay
# DNA gyrase subunit B, sequence (P0A0K8 whole entry): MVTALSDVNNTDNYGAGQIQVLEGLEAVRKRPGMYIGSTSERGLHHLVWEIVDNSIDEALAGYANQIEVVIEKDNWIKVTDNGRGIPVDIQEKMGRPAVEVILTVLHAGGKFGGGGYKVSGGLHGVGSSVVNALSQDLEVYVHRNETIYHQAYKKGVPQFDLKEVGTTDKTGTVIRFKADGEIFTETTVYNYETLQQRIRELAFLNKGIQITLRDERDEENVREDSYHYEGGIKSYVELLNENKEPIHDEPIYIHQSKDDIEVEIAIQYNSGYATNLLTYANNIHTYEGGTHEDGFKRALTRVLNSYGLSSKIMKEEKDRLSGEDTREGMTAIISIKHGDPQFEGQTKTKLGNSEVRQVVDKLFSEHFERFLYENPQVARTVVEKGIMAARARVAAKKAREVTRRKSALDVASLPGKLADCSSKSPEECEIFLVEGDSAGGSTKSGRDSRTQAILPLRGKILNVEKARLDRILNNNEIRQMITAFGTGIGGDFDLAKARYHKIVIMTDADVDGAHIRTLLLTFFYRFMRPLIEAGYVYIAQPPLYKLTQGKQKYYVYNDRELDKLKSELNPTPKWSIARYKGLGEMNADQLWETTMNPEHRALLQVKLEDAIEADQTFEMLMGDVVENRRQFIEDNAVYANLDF
smiles,measurement,value
CCNC(=O)Nc1nc2cc(-c3cnc(C(C)(C)OP(=O)(O)O)nc3)c(F)c([C@H]3CCCO3)c2[nH]1,Ki,< 9 nM
